Here are results for 68 sequences from the supplement of paper PMC11208160.

The nature of the data set: recombinant UMI read abundance after kanamycin selection (control-corrected) (log10(CPM+1)); higher = more efficient recombination; extreme values may be limits of the assay; sequences stand for … in AGTGCAGAGAAAATCGGCCAGTTTTCTCTGCCTGCAGTCCGCATGCCGTGGGACCCCTTGGGTTCTAACCTGTTGCCTAGATTTATGCAGCGGACTGCCTTTCTCCCAAAGTGATAAACCGG…AGGTTGGTTTCACT; site = the 11-nt donor. The method, boiled down:
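Each donor and donor-binding-loop pair was tracked by a 12-nt UMI on a plasmid carrying a promoterless kanamycin gene. With a second plasmid supplying a fixed target and T7-inducible IS621 bridge recombinase, the pool was plated in Escherichia coli on IPTG (0.07 mM) plus kanamycin or unselected. Sequencing of recombinant UMIs across the donor–target junction gave counts expressed as log10(CPM+1) after replicate averaging and control-derived scaling.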
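Note: IS621 bridge recombinase in Escherichia coli cells against a fixed T5 target plasmid.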

For “CTTTCGCCATGGACCGGTTTTCCCGGTAATCCGTATTTGCT (site CTTTCGCCTAG)”, the “recombinant UMI read abundance (log10)” value was 0.0294.

Turning to “CTTTCTCCATGGACCGGTTTTCCCGGTAATCCGTATTTGCT (site CTTTCTCCTAG)”, the “recombinant UMI read abundance (log10)” value worked out at 1.82.

For the sequence “CTTTGCCCATGGACCGGTTTTCCCGGTAATCCGTATTTGAG (site CTTTGCCCTCT)”, the “recombinant UMI read abundance (log10)” value was determined as 0.0229.

For “CTTTGGGCATGGACCGGTTTTCCCGGTAATCCGTATTTGTC (site CTTTGGGCTGA)”, the “recombinant UMI read abundance (log10)” value is 0.

As for “CTTTTGGCATGGACCGGTTTTCCCGGTAATCCGTATTTGCT (site CATTTGGCTAG)”, the “recombinant UMI read abundance (log10)” value came out at 0.

“CTTTTGGCATGGACCGGTTTTCCCGGTAATCCGTATTTGCT (site CCTTTGGCTAG)”: the “recombinant UMI read abundance (log10)” value was 0.

Regarding “CTTTTGGCATGGACCGGTTTTCCCGGTAATCCGTATTTGCT (site CGTTTGGCTAG)”, the “recombinant UMI read abundance (log10)” value amounted to 0.00381.

Take “CTTTTGGCATGGACCGGTTTTCCCGGTAATCCGTATTTGCT (site CTTTTGGCTAG)”: the “recombinant UMI read abundance (log10)” value came out at 0.

For “GAAAACGCATGGACCGGTTTTCCCGGTAATCCGTATTTGAA (site GAAAACGCTTT)”, the “recombinant UMI read abundance (log10)” value is 2.16.

“GAAAAGTCATGGACCGGTTTTCCCGGTAATCCGTATTTGAA (site GAAAAGTCTTT)”: the “recombinant UMI read abundance (log10)” value came to 2.84.

On to “GAAAATTCATGGACCGGTTTTCCCGGTAATCCGTATTTGTT (site GAAAATTCTAA)”, for which the “recombinant UMI read abundance (log10)” value was determined as 0.97.

For “GAAAATTCATGGACCGGTTTTCCCGGTAATCCGTATTTGTT (site GAACATTCTAA)”, the “recombinant UMI read abundance (log10)” value is 0.

For “GAAAATTCATGGACCGGTTTTCCCGGTAATCCGTATTTGTT (site GAAGATTCTAA)”, the “recombinant UMI read abundance (log10)” value amounted to 0.507.

For the sequence “GAAAATTCATGGACCGGTTTTCCCGGTAATCCGTATTTGTT (site GAATATTCTAA)”, the “recombinant UMI read abundance (log10)” value was 1.79.

As to “GAAACACCATGGACCGGTTTTCCCGGTAATCCGTATTTGTT (site GAAACACCTAA)”, the “recombinant UMI read abundance (log10)” value was 0.0036.

Consider “GAAACCTCATGGACCGGTTTTCCCGGTAATCCGTATTTGTG (site GAAACCTCTCA)”, for which the “recombinant UMI read abundance (log10)” value came to 0.406.

On to “GAAACGTCATGGACCGGTTTTCCCGGTAATCCGTATTTGGC (site GAAACGTCTGC)”, for which the “recombinant UMI read abundance (log10)” value came to 2.01.

For the sequence “GAAAGCTCATGGACCGGTTTTCCCGGTAATCCGTATTTGCG (site GAAAGCTCTCG)”, the “recombinant UMI read abundance (log10)” value was 2.77.

Take “GAAAGGCCATGGACCGGTTTTCCCGGTAATCCGTATTTGCA (site GAAAGGCCTTG)”: the “recombinant UMI read abundance (log10)” value came out at 0.

Turning to “GAAAGGCCATGGACCGGTTTTCCCGGTAATCCGTATTTGCA (site GAACGGCCTTG)”, the “recombinant UMI read abundance (log10)” value turned out to be 0.

Turning to “GAAAGGCCATGGACCGGTTTTCCCGGTAATCCGTATTTGCA (site GAAGGGCCTTG)”, the “recombinant UMI read abundance (log10)” value turned out to be 0.

Regarding “GAAAGGCCATGGACCGGTTTTCCCGGTAATCCGTATTTGCA (site GAATGGCCTTG)”, the “recombinant UMI read abundance (log10)” value is 0.

“GAAAGTCCATGGACCGGTTTTCCCGGTAATCCGTATTTGTA (site AAAAGTCCTTA)”: the “recombinant UMI read abundance (log10)” value came out at 0.

Consider “GAAAGTCCATGGACCGGTTTTCCCGGTAATCCGTATTTGTA (site CAAAGTCCTTA)”, for which the “recombinant UMI read abundance (log10)” value was 0.821.

In the case of “GAAAGTCCATGGACCGGTTTTCCCGGTAATCCGTATTTGTA (site GAAAGTCCTTA)”, the “recombinant UMI read abundance (log10)” value is 0.0817.

Turning to “GAAAGTCCATGGACCGGTTTTCCCGGTAATCCGTATTTGTA (site TAAAGTCCTTA)”, the “recombinant UMI read abundance (log10)” value stood at 1.01.

For “GAACGGACATGGACCGGTTTTCCCGGTAATCCGTATTTGAA (site GAACGGACTTT)”, the “recombinant UMI read abundance (log10)” value was found to be 0.965.

For “GAACTATCATGGACCGGTTTTCCCGGTAATCCGTATTTGCC (site GAACTATCTGG)”, the “recombinant UMI read abundance (log10)” value came to 1.78.

Consider “GAACTCACATGGACCGGTTTTCCCGGTAATCCGTATTTGAT (site GAACTCACTAT)”, for which the “recombinant UMI read abundance (log10)” value was found to be 2.08.

For “GAACTCACATGGACCGGTTTTCCCGGTAATCCGTATTTGAT (site GACCTCACTAT)”, the “recombinant UMI read abundance (log10)” value was determined as 0.375.

In the case of “GAACTCACATGGACCGGTTTTCCCGGTAATCCGTATTTGAT (site GAGCTCACTAT)”, the “recombinant UMI read abundance (log10)” value is 0.

In the case of “GAACTCACATGGACCGGTTTTCCCGGTAATCCGTATTTGAT (site GATCTCACTAT)”, the “recombinant UMI read abundance (log10)” value amounted to 0.263.

Turning to “GAAGAAGCATGGACCGGTTTTCCCGGTAATCCGTATTTGAG (site GAAGAAGCTCT)”, the “recombinant UMI read abundance (log10)” value is 2.53.

Take “GAAGAATCATGGACCGGTTTTCCCGGTAATCCGTATTTGTT (site GAAGAATCTAA)”: the “recombinant UMI read abundance (log10)” value was found to be 3.34.

In the case of “GAAGAATCATGGACCGGTTTTCCCGGTAATCCGTATTTGTT (site GAAGACTCTAA)”, the “recombinant UMI read abundance (log10)” value amounted to 1.41.

On to “GAAGAATCATGGACCGGTTTTCCCGGTAATCCGTATTTGTT (site GAAGAGTCTAA)”, for which the “recombinant UMI read abundance (log10)” value is 1.59.

Take “GAAGAATCATGGACCGGTTTTCCCGGTAATCCGTATTTGTT (site GAAGATTCTAA)”: the “recombinant UMI read abundance (log10)” value was determined as 0.

On to “GAAGACCCATGGACCGGTTTTCCCGGTAATCCGTATTTGCG (site GAAGACCCTCG)”, for which the “recombinant UMI read abundance (log10)” value worked out at 0.691.

Take “GAAGAGGCATGGACCGGTTTTCCCGGTAATCCGTATTTGTA (site GAAGAGGCTTA)”: the “recombinant UMI read abundance (log10)” value was determined as 1.64.

On to “GAAGATCCATGGACCGGTTTTCCCGGTAATCCGTATTTGTT (site GAAGATACTAA)”, for which the “recombinant UMI read abundance (log10)” value stood at 0.0059.

For “GAAGATCCATGGACCGGTTTTCCCGGTAATCCGTATTTGTT (site GAAGATCCTAA)”, the “recombinant UMI read abundance (log10)” value came to 1.25.

Take “GAAGATCCATGGACCGGTTTTCCCGGTAATCCGTATTTGTT (site GAAGATGCTAA)”: the “recombinant UMI read abundance (log10)” value is 0.00882.

For the sequence “GAAGATCCATGGACCGGTTTTCCCGGTAATCCGTATTTGTT (site GAAGATTCTAA)”, the “recombinant UMI read abundance (log10)” value stood at 0.0204.

On to “GAAGATTCATGGACCGGTTTTCCCGGTAATCCGTATTTGAT (site GAAGATTCTAA)”, for which the “recombinant UMI read abundance (log10)” value was 0.773.

Consider “GAAGATTCATGGACCGGTTTTCCCGGTAATCCGTATTTGAT (site GAAGATTCTAC)”, for which the “recombinant UMI read abundance (log10)” value amounted to 0.00538.

Turning to “GAAGATTCATGGACCGGTTTTCCCGGTAATCCGTATTTGAT (site GAAGATTCTAG)”, the “recombinant UMI read abundance (log10)” value amounted to 0.

With “GAAGATTCATGGACCGGTTTTCCCGGTAATCCGTATTTGAT (site GAAGATTCTAT)”, the “recombinant UMI read abundance (log10)” value was 2.48.

Turning to “GAAGATTCATGGACCGGTTTTCCCGGTAATCCGTATTTGTG (site GAAGATTCTAA)”, the “recombinant UMI read abundance (log10)” value was 1.55.

Take “GAAGATTCATGGACCGGTTTTCCCGGTAATCCGTATTTGTG (site GAAGATTCTCA)”: the “recombinant UMI read abundance (log10)” value came to 2.81.

As for “GAAGATTCATGGACCGGTTTTCCCGGTAATCCGTATTTGTG (site GAAGATTCTGA)”, the “recombinant UMI read abundance (log10)” value turned out to be 0.

For the sequence “GAAGATTCATGGACCGGTTTTCCCGGTAATCCGTATTTGTG (site GAAGATTCTTA)”, the “recombinant UMI read abundance (log10)” value was 1.24.

Take “GAAGGACCATGGACCGGTTTTCCCGGTAATCCGTATTTGCG (site GAAGGACCTCG)”: the “recombinant UMI read abundance (log10)” value worked out at 0.

Regarding “GAAGGGACATGGACCGGTTTTCCCGGTAATCCGTATTTGCA (site GAAGGGACTTG)”, the “recombinant UMI read abundance (log10)” value worked out at 2.41.

For “GAAGGTGCATGGACCGGTTTTCCCGGTAATCCGTATTTGAA (site GAAGGTGCTTT)”, the “recombinant UMI read abundance (log10)” value turned out to be 2.08.

For the sequence “GAAGTCTCATGGACCGGTTTTCCCGGTAATCCGTATTTGGT (site GAAGTCTCTAC)”, the “recombinant UMI read abundance (log10)” value was 2.53.

On to “GAATACACATGGACCGGTTTTCCCGGTAATCCGTATTTGCG (site GAATACACTCG)”, for which the “recombinant UMI read abundance (log10)” value is 2.66.

Regarding “GAATACTCATGGACCGGTTTTCCCGGTAATCCGTATTTGGA (site GAATACTCTTC)”, the “recombinant UMI read abundance (log10)” value stood at 2.53.

Consider “GAATAGACATGGACCGGTTTTCCCGGTAATCCGTATTTGCC (site GAATAGACTGG)”, for which the “recombinant UMI read abundance (log10)” value amounted to 2.33.

Consider “GAATAGACATGGACCGGTTTTCCCGGTAATCCGTATTTGCC (site GCATAGACTGG)”, for which the “recombinant UMI read abundance (log10)” value came to 1.73.

As to “GAATAGACATGGACCGGTTTTCCCGGTAATCCGTATTTGCC (site GGATAGACTGG)”, the “recombinant UMI read abundance (log10)” value worked out at 1.44.

On to “GAATAGACATGGACCGGTTTTCCCGGTAATCCGTATTTGCC (site GTATAGACTGG)”, for which the “recombinant UMI read abundance (log10)” value amounted to 2.39.

As to “GAATAGTCATGGACCGGTTTTCCCGGTAATCCGTATTTGGG (site GAATAGTCTCC)”, the “recombinant UMI read abundance (log10)” value was 1.13.

As to “GAATGAACATGGACCGGTTTTCCCGGTAATCCGTATTTGGT (site GAATGAACTAC)”, the “recombinant UMI read abundance (log10)” value stood at 1.55.

Turning to “GAATGGCCATGGACCGGTTTTCCCGGTAATCCGTATTTGCT (site GAATGGCCTAG)”, the “recombinant UMI read abundance (log10)” value was determined as 0.0235.

Consider “GAATGGCCATGGACCGGTTTTCCCGGTAATCCGTATTTGCT (site GAATGGCCTCG)”, for which the “recombinant UMI read abundance (log10)” value is 0.0255.

Consider “GAATGGCCATGGACCGGTTTTCCCGGTAATCCGTATTTGCT (site GAATGGCCTGG)”, for which the “recombinant UMI read abundance (log10)” value was 0.

As to “GAATGGCCATGGACCGGTTTTCCCGGTAATCCGTATTTGCT (site GAATGGCCTTG)”, the “recombinant UMI read abundance (log10)” value worked out at 0.

“GAATTCGCATGGACCGGTTTTCCCGGTAATCCGTATTTGCT (site GAATTCGCTAG)”: the “recombinant UMI read abundance (log10)” value was 2.87.
